Key:
[1] = system: PBMC; test: CellTiter-Glo 2.0 cell viability assay in PBMC; assay type: cell-based, human; conditions: PBMC
Protocol: (§1) The following assays were used to profile cell safety of compound treatment in HIV-exposed cultures (LC5-RIC or PBMC): (1) CellTox^TM Green Cytotoxicity Assay, Promega, measures binding of a fluorescent dye to DNA of cells with impaired membrane integrity; (2) CellTiter-Glo® 2.0 Assay, Promega, which measures the amount of ATP in viable cells after lysis using an assay with luminescence read-out. Cells were plated into black 96-well plates followed by overnight incubation at 37 °C, 5% CO2. Compounds dissolved in DMSO were screened at multiple concentrations from 0.6 to 10,000 nM at a final DMSO concentration of 0.04% followed by additional 48 h incubation. Both assays were performed according to manufacturer’s recommendations and consecutively in the above mentioned order. Cells were washed once with PBS between the assays.

[2] = CellTiter-Glo 2.0 cell viability assay in LC5-RIC cells; assay type: cell-based; conditions: human; Table S2; CellTiter-Glo 2.0; mean ± SD
Protocol: as §1

[3] = system: HIV-1MMVP899-87; test: Inhibition of clinical isolate HIV-1M MVP899-87 in PBMCs; assay type: cell-based; conditions: PBMC
Description: (§2) Clinical isolates represented the following HIV genotypes: HIV-1MMVP899-87: HIV-type 1, Major group; HIV-1OMVP5180-91: HIV-type 1, Outlier group; HIV-2MVP10668-93: HIV-type 2; HIV-1V13-03413B: HIV-type 1, Major group/B-clade, isolate with multiple drug-resistance mutations. Depicted are the means of three independent experiments with biological triplicates (n = 3; m = 3) and standard deviations (SD).
(§3) Isolation of primary clinical HIV-isolates HIV-1MMVP899-87, HIV-1OMVP5180-91, HIV-1V13-03413B and HIV-2MVP10668-93 is described in[43]. The HIV-1 M group/B-clade isolate (HIV-1V13-03413B) was isolated from a patient with virological treatment failure. Clinical isolates were produced from HIV infected H9 cells as described.
(§4) To evaluate anti-HIV efficacies of test compounds in primary human target cells, stimulated PBMCs were seeded in 96-well plates at a density of 500,000 cells per well, different #7concentrations of the compound (serial dilutions) and virus inoculum (MOI of 0.5) added to the PBMCs and cultures incubated for 48 h. Infectious virus production was quantified by transferring 35 µl of supernatant from the PBMC cultures to LC5-RIC cells, seeded in black 96-well plates one day earlier. LC5-RIC cultures were then incubated for 72 h and analysed for DsRed1 reporter expression and anti-HIV activity calculated as described for the EASY-HIT assay.

[4] = molecular target: T1, HIV integrase (Human immunodeficiency virus type 1 group M subtype B, UniProt P04585); test: HIV Integrase Activity Assay (HIV-1 Integrase Assay Kit); assay type: biochemical; conditions: 10 µM
T1 construct: purchased XpressBio
Protocol: HIV Integrase Activity Assay. To evaluate the inhibitory effect of test compounds to counteract HIV integrase activity, the HIV-1 Integrase Assay Kit (XpressBio) was conducted according to manufacturer’s recommendations. Dolutegravir was used as reference inhibitor.

[5] = system: DsRed1 reporter gene activated by early viral gene expression; test: DsRed1 reporter gene expression in HIV-exposed LC5-RIC cultures (first step of two-step assay); assay type: cell-based, HIV-1; parameters: unit not given here; conditions: 50 nM, 48 h
Description: The reporter gene in LC5-RIC cells contains the HIV promoter and other regulatory elements of HIV expression and is activated by early viral gene expression during HIV infection. Use of LC5-RIC cells in a previously described two-step assay format allows comparison of the effect of compound treatment on expression of the DsRed1 reporter gene and infectious virus production in the same cultures. As reference compound, we used an experimental inhibitor of HIV transcription called Flavopiridol. Flavopiridol blocks pTEFb, an essential co-factor for Tat-dependent activation[18],[19]. […]
Figure 2 Comparison of effects of compound #7 treatment on reporter gene expression and production of infectious virus in LC5-RIC cultures. […] Effects of compound treatment on reporter gene expression and production of infectious virus were determined in LC5-RIC cultures exposed to virus inoculum in the presence or absence of compounds for 48 h. Fluorescent signals of these primary cultures were measured to determine effects on reporter gene expression. Effects on infectious virus production were determined by transferring aliquots of the supernatants of primary cultures to uninfected LC5-RIC cells, and fluorescent signals determined in secondary plates 72 h after transfer. […]

[6] = system: HIV-1OMVP5180-91; test: Inhibition of clinical isolate HIV-1O MVP5180-91 in PBMCs; assay type: cell-based; conditions: PBMC, HIV-type 1, Outlier group
Description: as §2, §3, §4

[7] = system: HIV-2MVP10668-93; test: Inhibition of clinical isolate HIV-2 MVP10668-93 in PBMCs; assay type: cell-based, HIV-type 2; conditions: Human immunodeficiency virus 2, PBMC
Description: as §2, §3, §4

SMILES	selectivity index (CC50/IC50) [1]	CC50 at 48 h [2] [nM]	IC50 ([3]; read-out: IC50 value, HIV-1M MVP899-87, HIV-type 1, Major group) [nM]	IC90 ([3]; read-out: IC90 value, HIV-1M MVP899-87, HIV-type 1, Major group) [nM]	inhibitory effect on Integrase activity [4]	Reporter gene expression, median (fluorescent signal normalized to untreated virus-exposed cultures) [5]	IC50 [6] [nM]	IC90 [6] [nM]	IC50 ([7]; read-out: IC50 value, HIV-2 MVP10668-93) [nM]	IC90 ([7]; read-out: IC90 value, HIV-2 MVP10668-93) [nM]
COc1oc(C2C/C(=C/C(C)=C/c3ccc(C(F)(F)F)cc3)CO2)c(C)c(=O)c1C (stereo not drawn) [compound #7]	> 970	> 10000	4.11	12.3	no inhibitory effects	55.3	2.88	8.65	3.88	11.7
CN1CC[C@H](c2c(O)cc(O)c3c(=O)cc(-c4ccccc4Cl)oc23)[C@H](O)C1 [Flavopiridol]	–	127.4 ± 0.94	–	–	–	9.33	–	–	–	–

— paper PMC6987146, “Potent inhibition of HIV replication in primary human cells by novel synthetic polyketides inspired by Aureothin” (Scientific Reports, 2020)
